In general, IC50 refers to the concentration that gives 50% inhibition.

Our source for the IC50, Activity and inhibition values is ChEMBL document CHEMBL4834472 (J Med Chem, 2021).

Calls of active or inactive are those of the source. No cut-off for these calls is given here. A value given as a limit tells only on which side of the number the result lay.

The target of one assay is CDK2/Cyclin A1 (Homo sapiens, UniProt P24941). The class given is protein-complex assay.
Assay [1] has as its target MAP kinase-interacting serine/threonine-protein kinase 2 (Homo sapiens) (UniProt Q9HBH9). Kind of assay: Inhibition of MNK2 (unknown origin) assessed as residual activity at 500 nM.
Assay [2] concerns Receptor-type tyrosine-protein kinase FLT3 (Homo sapiens), P36888 [D835Y]. Kind of assay: Inhibition of FLT3 D835Y (unknown origin) assessed as residual activity at 500 nM.
For assay [3], the target named is Ribosomal protein S6 kinase alpha-4 (Homo sapiens) (UniProt O75676). Kind of assay: Inhibition of MSK2 (unknown origin) assessed as residual activity at 500 nM.
Assay [4] addresses NT-3 growth factor receptor (Homo sapiens) (UniProt Q16288). Kind of assay: Inhibition of TRKC (unknown origin) assessed as residual activity at 500 nM.
The target of assay [5] is Lymphokine-activated killer T-cell-originated protein kinase (Homo sapiens) (UniProt Q96KB5). Kind of assay: Inhibition of TOPK (unknown origin) assessed as residual activity at 500 nM.
Chain of Lymphokine-activated killer T-cell-originated protein kinase (Homo sapiens) (Q96KB5 whole entry): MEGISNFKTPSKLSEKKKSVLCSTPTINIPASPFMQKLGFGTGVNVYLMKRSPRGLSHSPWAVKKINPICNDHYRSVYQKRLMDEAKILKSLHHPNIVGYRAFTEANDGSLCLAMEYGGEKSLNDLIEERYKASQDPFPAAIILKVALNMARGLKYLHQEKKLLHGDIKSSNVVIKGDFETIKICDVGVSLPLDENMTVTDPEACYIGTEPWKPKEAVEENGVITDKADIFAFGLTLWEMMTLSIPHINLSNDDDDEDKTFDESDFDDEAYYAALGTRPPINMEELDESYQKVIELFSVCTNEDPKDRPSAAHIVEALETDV
Assay [6] deals with Maternal embryonic leucine zipper kinase (Homo sapiens) (UniProt Q14680). Kind of assay: Inhibition of MELK (unknown origin) assessed as residual activity at 500 nM.
The test system of the next assay is K562. Kind of assay: cells. As to conditions: Homo sapiens, K562, 72 h.
Assay [7] has as its target Dual specificity protein kinase CLK1 (Homo sapiens) (UniProt P49759). Kind of assay: Inhibition of CLK1 (unknown origin) assessed as residual activity at 500 nM.
Assay [8] deals with CDK2/Cyclin A1 (Homo sapiens) (UniProt P24941+P78396). Kind of assay: Inhibition of CDK2/cyclin A1 (unknown origin) assessed as residual activity at 500 nM. The format is protein-complex assay.
Assay [9] concerns the target Leucine-rich repeat serine/threonine-protein kinase 2 (Homo sapiens) (UniProt Q5S007). Kind of assay: Inhibition of LRRK2 (unknown origin) assessed as residual activity at 500 nM.
For assay [10], the target named is Rho-associated protein kinase 2 (Homo sapiens) (UniProt O75116). Kind of assay: Inhibition of ROCK2 (unknown origin) assessed as residual activity at 500 nM.
Chain of Rho-associated protein kinase 2 (Homo sapiens) (O75116 whole entry, looked up): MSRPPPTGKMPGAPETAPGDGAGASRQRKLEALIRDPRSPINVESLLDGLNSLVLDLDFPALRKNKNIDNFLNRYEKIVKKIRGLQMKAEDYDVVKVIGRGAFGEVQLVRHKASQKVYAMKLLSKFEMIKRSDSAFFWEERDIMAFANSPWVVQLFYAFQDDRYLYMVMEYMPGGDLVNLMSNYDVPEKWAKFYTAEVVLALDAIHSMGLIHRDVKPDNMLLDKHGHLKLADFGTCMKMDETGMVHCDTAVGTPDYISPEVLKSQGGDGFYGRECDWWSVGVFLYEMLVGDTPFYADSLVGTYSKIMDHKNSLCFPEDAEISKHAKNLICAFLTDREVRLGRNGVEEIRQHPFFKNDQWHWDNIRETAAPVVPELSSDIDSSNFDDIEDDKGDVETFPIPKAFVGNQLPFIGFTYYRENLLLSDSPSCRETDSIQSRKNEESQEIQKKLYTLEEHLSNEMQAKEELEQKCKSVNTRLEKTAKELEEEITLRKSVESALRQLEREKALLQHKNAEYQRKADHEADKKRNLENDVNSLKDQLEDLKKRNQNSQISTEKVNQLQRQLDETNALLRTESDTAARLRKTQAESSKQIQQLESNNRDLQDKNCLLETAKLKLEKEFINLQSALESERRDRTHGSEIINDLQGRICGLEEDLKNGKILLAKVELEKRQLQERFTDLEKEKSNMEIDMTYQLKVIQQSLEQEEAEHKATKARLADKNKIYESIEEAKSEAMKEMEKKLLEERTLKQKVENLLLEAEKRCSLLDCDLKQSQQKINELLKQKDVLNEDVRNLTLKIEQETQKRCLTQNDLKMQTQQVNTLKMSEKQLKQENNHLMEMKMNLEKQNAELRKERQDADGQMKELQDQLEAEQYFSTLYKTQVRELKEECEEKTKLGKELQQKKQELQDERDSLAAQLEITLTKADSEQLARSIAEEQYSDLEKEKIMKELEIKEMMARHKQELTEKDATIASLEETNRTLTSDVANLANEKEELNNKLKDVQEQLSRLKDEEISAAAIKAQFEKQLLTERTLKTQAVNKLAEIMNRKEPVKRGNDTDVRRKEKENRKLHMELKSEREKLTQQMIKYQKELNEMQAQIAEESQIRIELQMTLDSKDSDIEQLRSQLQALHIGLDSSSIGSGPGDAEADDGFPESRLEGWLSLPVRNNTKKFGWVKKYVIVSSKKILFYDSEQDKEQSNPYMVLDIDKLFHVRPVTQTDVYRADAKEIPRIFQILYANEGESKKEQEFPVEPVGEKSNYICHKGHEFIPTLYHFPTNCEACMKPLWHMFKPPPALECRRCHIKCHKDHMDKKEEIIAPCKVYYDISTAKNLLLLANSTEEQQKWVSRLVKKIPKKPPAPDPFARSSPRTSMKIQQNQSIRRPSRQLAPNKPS
In assay [11] the test system is MV4-11. Kind of assay: cells. To be noted: Homo sapiens, MV4-11, 72 h.
Description: Antiproliferative activity against human MV4-11 cells assessed as cell death measured after 72 hrs by resazurin dye based assay
Assay [12] addresses Dual specificity tyrosine-phosphorylation-regulated kinase 1B (Homo sapiens) (UniProt Q9Y463). Kind of assay: Inhibition of DYRK1B (unknown origin) assessed as residual activity at 500 nM.
Assay [13] concerns the target Ribosomal protein S6 kinase beta-1 (Homo sapiens) (UniProt P23443). Kind of assay: Inhibition of p70S6K (unknown origin) assessed as residual activity at 500 nM.
Assay [14] has as its system Receptor-type tyrosine-protein kinase FLT3 (Homo sapiens), P36888 [UNDEFINED MUTATION]. Kind of assay: Inhibition of FLT3 ITD (unknown origin) assessed as residual activity at 500 nM.
Assay [15] has as its target cGMP-dependent protein kinase 1 (Homo sapiens) (UniProt Q13976). Kind of assay: Inhibition of PKG1alpha (unknown origin) assessed as residual activity at 500 nM.
For assay [16], the system named is MOLM-14. Kind of assay: Antiproliferative activity against human MOLM-14 cells harboring F691L mutant assessed as cell death measured after 72 hrs by resazurin dye based assay. The class given is functional. As to conditions: MOLM-14, 72 h.
The subject of another assay is SEM cells. Kind of assay: Antiproliferative activity against human SEM cells assessed as cell death measured after 72 hrs by resazurin dye based assay. The class given is functional. In general terms: The colour change of resazurin is a common sign of viable cells or microbes.
Assay [17] concerns BaF3. Kind of assay: Antiproliferative activity against mouse BaF3 cells harboring FLt3 ITD mutant assessed as cell death measured after 72 hrs by resazurin dye based assay. As to conditions: BaF3, 72 h. The class given is functional.
For assay [18], the target named is T1, Receptor-type tyrosine-protein kinase FLT3 (Homo sapiens, UniProt P36888).
T1 sequence (P36888 whole entry): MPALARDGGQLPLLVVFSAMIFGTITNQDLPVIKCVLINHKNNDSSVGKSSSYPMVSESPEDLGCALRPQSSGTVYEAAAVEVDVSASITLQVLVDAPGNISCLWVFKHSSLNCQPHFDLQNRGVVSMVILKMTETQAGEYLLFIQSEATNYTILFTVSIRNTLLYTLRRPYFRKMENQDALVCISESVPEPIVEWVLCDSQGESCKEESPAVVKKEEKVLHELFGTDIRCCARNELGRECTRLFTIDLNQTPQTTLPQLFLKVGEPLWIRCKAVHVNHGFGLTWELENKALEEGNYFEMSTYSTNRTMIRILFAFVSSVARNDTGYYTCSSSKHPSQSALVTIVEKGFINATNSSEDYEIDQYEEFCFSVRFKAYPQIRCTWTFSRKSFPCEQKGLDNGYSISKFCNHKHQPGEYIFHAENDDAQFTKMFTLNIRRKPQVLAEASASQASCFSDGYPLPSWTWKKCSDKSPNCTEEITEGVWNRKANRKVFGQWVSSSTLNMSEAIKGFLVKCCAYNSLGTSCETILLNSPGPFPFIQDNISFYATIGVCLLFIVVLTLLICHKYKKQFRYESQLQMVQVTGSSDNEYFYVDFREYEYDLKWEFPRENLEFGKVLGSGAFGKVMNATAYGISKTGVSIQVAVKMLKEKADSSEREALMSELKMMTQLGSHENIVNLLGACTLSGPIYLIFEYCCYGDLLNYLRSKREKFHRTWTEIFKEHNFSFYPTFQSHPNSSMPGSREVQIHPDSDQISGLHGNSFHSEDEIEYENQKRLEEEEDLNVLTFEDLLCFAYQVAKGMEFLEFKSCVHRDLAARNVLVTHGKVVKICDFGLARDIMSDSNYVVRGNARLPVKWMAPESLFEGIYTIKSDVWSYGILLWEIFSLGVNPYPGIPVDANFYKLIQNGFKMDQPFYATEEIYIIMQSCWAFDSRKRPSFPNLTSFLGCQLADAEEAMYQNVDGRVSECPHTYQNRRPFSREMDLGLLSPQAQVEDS
Kind of assay: Inhibition of wild type FLT3 (unknown origin) using AGLT peptide substrate in presence of [32P]gammaATP by image analyser.

The target of assay [19] is Receptor-type tyrosine-protein kinase FLT3 (Homo sapiens) (UniProt P36888). Kind of assay: Inhibition of FLT3 in human MV4-11 cells assessed as ERK1/2 phosphorylation at 20 to 100 nM incubated for 1 hrs by Western blot analysis. The format is cell-based. As to conditions: dose 20-100 nM. A general note: A western blot detects proteins with antibodies after separation by electrophoresis.

The target of assay [20] is Cyclin-dependent kinase 1/cyclin B1 (Homo sapiens, UniProt P06493). Kind of assay: Inhibition of CDK1/cyclin B1 (unknown origin) in presence of [32P]gammaATP by image analyser. The class given is protein-complex assay.
For assay [21], the system named is MV4-11. Kind of assay: Induction of apoptosis in human MV4-11 cells assessed as increase in cleaved PARP1 level at 100 nM incubated for 24 hrs by Western blot analysis. The format is functional, cell-based.
Assay [22] concerns MV4-11. Kind of assay: Induction of apoptosis in human MV4-11 cells assessed as effect on Bcl2 level at 100 nM incubated for 24 hrs by Western blot analysis. The format is functional, cell-based.
For assay [23], the system named is BaF3. Kind of assay: Antiproliferative activity against mouse BaF3 cells assessed as cell death measured after 72 hrs by resazurin dye based assay. The class given is functional. To be noted: BaF3, 72 h.
In a further assay the test system is MOLM-13. Kind of assay: Antiproliferative activity against human MOLM-13 cells assessed as cell death measured after 72 hrs by resazurin dye based assay. The class given is functional. As to conditions: MOLM-13, 72 h.
In assay [24] the target is Receptor-type tyrosine-protein kinase FLT3 (Homo sapiens) (UniProt P36888). Kind of assay: Inhibition of FLT3 autophosphorylation in human MV4-11 cells at 20 to 100 nM incubated for 1 hrs by Western blot analysis. The format is cell-based. To be noted: dose 20-100 nM.
Assay [25] relates to MOLM-14. Kind of assay: Antiproliferative activity against human MOLM-14 cells assessed as cell death measured after 72 hrs by resazurin dye based assay. The class given is functional. As to conditions: MOLM-14, 72 h.
Assay [26] deals with MV4-11. Kind of assay: Induction of apoptosis in human MV4-11 cells assessed as caspase 7 activation using fluorescent substrate Ac-DEVD-AMC at 100 nM incubated for 24 hrs by Western blot analysis. The format is functional, cell-based.
For assay [27], the target named is Cyclin-dependent kinase 4/cyclin D1 (Homo sapiens, UniProt P11802). Kind of assay: Inhibition of CDK4/cyclin D1 (unknown origin) in presence of [32P]gammaATP by image analyser. The format is protein-complex assay.
Chain of Cyclin-dependent kinase 4/cyclin D1 (P11802 whole entry): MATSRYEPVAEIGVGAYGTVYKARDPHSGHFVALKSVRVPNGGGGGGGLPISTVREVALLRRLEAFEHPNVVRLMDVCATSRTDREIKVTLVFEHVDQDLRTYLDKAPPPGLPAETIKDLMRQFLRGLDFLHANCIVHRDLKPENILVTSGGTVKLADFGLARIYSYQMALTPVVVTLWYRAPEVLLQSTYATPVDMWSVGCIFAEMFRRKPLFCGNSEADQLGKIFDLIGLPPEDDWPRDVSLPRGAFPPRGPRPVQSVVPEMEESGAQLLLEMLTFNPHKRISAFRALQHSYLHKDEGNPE
Chain of Cyclin-dependent kinase 4/cyclin D1 (P24385 whole entry, further chain): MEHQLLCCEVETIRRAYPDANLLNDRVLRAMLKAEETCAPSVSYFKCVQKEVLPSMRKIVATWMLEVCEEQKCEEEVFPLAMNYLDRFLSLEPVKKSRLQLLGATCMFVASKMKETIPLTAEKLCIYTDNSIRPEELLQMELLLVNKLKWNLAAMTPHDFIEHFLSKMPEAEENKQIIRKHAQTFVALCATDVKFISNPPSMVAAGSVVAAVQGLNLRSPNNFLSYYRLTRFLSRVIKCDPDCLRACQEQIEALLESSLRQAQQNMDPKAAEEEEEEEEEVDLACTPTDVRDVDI
In a further assay the target is CDK2/Cyclin A2 (Homo sapiens, UniProt P24941). Kind of assay: Inhibition of CDK2/cyclin A2 (unknown origin) in presence of [32P]gammaATP by image analyser. The format is protein-complex assay.
Assay [28] deals with Receptor-type tyrosine-protein kinase FLT3 (Homo sapiens, UniProt P36888, ITD).
Assay [29] deals with Receptor-type tyrosine-protein kinase FLT3 (Homo sapiens) (UniProt P36888). Kind of assay: Inhibition of FLT3 in human MV4-11 cells assessed as STAT5 phosphorylation at Y694 at 20 to 100 nM incubated for 1 hrs by Western blot analysis. To be noted: dose 20-100 nM. The format is cell-based.
The subject of assay [30] is MV4-11. Kind of assay: Induction of apoptosis in human MV4-11 cells assessed as caspase 3 activation using fluorescent substrate Ac-DEVD-AMC at 100 nM incubated for 24 hrs by Western blot analysis. The class given is functional, cell-based.
The subject of another assay is THP-1. Kind of assay: Antiproliferative activity against human THP-1 cells assessed as cell death measured after 72 hrs by resazurin dye based assay. The format is functional. To be noted: THP-1, 72 h.
Assay [31] addresses Cyclin-dependent kinase 2/cyclin E1 (Homo sapiens, UniProt P24941). Kind of assay: Inhibition of CDK2/cyclin E1 (unknown origin) in presence of [32P]gammaATP by image analyser. The format is protein-complex assay.
Another assay concerns the target CDK9/cyclin T1 (Homo sapiens, UniProt P50750). Kind of assay: Inhibition of CDK9/cyclin T1 (unknown origin) in presence of [32P]gammaATP by image analyser. The format is protein-complex assay.
A further assay relates to CCRF-CEM. Kind of assay: Antiproliferative activity against human CCRF-CEM cells assessed as cell death measured after 72 hrs by resazurin dye based assay. The class given is functional.
The next assay concerns U-937. Kind of assay: Antiproliferative activity against human U-937 cells assessed as cell death measured after 72 hrs by resazurin dye based assay. To be noted: U-937, 72 h. The class given is functional.
The subject of assay [32] is MV4-11. Kind of assay: Induction of apoptosis in human MV4-11 cells assessed as decrease in MCL1 level at 100 nM incubated for 24 hrs by Western blot analysis. The format is functional, cell-based.
Assay [33] deals with MOLM-14. Kind of assay: Antiproliferative activity against human MOLM-14 cells harboring D835Y mutant assessed as cell death measured after 72 hrs by resazurin dye based assay. The class given is functional. To be noted: MOLM-14, 72 h.

Chain of Dual specificity protein kinase CLK1 (Homo sapiens) (P49759 whole entry, looked up): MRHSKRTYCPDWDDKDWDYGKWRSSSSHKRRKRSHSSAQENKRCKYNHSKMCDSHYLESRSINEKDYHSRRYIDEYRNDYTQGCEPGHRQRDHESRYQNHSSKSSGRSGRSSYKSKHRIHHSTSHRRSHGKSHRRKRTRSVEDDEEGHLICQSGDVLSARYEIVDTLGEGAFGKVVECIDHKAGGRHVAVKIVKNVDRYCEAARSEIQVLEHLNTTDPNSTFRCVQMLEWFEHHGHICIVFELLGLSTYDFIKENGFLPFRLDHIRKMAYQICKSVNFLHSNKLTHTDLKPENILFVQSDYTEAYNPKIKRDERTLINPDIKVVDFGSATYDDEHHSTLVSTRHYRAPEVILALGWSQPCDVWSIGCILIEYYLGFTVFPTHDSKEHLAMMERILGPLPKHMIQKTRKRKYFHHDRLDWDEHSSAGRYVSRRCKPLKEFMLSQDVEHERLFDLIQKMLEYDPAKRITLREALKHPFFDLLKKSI
Chain of cGMP-dependent protein kinase 1 (Homo sapiens) (Q13976 whole entry): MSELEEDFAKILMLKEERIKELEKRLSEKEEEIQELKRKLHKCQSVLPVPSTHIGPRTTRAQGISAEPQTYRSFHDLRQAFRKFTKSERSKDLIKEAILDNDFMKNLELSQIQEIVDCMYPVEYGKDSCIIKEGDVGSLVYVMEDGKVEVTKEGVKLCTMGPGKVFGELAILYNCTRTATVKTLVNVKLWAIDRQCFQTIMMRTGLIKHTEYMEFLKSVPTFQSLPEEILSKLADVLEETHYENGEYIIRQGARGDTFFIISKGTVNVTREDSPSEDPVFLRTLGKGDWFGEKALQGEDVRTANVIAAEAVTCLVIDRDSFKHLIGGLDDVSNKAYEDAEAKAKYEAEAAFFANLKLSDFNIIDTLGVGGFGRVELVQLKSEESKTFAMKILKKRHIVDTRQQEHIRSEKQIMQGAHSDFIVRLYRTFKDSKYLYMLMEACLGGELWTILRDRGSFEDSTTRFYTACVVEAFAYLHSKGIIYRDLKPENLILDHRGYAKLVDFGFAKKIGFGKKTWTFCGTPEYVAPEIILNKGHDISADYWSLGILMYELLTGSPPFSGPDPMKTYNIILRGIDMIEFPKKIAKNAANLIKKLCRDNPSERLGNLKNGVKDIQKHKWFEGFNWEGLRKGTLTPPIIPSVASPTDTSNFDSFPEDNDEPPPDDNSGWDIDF
Chain of NT-3 growth factor receptor (Homo sapiens) (Q16288 32-839 limits assumed): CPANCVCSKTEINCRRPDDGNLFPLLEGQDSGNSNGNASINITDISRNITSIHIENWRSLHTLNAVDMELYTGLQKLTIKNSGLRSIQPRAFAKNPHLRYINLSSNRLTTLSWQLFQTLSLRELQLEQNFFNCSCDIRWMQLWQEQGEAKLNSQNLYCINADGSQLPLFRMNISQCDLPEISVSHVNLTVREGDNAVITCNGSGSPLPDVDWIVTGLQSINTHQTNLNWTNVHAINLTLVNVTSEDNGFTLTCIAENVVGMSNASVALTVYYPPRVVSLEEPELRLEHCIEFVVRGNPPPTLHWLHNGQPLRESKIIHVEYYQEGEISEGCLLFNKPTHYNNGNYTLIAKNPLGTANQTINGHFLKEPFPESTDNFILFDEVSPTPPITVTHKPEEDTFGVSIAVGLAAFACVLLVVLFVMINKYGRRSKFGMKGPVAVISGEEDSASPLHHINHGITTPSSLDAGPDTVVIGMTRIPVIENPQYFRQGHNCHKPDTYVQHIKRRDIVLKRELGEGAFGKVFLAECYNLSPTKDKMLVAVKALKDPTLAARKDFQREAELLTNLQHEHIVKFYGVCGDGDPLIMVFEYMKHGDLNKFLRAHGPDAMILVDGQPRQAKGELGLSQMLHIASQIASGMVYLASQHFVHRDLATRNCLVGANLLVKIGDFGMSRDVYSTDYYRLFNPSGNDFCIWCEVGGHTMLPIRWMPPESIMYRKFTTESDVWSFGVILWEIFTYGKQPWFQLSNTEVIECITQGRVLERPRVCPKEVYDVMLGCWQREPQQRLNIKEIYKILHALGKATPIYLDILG
Chain of Dual specificity tyrosine-phosphorylation-regulated kinase 1B (Homo sapiens) (Q9Y463 whole entry, looked up): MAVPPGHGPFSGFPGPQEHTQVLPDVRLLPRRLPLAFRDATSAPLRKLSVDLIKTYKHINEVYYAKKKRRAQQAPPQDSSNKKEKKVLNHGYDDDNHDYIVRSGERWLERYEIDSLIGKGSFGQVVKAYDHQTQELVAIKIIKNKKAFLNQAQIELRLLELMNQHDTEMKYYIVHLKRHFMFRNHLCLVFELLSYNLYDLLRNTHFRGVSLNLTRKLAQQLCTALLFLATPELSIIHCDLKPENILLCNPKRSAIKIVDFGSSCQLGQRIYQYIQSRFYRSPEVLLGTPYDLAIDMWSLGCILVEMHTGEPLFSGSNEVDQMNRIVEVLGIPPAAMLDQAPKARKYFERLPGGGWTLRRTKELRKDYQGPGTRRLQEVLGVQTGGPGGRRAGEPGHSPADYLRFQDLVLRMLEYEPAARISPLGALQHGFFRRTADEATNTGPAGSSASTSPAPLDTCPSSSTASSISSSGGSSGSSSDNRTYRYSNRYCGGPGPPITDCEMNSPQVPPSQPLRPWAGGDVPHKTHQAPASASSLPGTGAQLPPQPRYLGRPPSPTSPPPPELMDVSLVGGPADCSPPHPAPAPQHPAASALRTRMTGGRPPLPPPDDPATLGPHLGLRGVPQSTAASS
Description for K562: Antiproliferative activity against human K562 cells assessed as cell death measured after 72 hrs by resazurin dye based assay

Regarding `FC(F)(F)c1n[nH]cc1-c1nc2ccc3[nH]ncc3c2c2c1CCCC2`, the results for the IC50 against CDK2/Cyclin A1, with K562 and in the assay with MV4-11 [11] were 39 nM, 8590 nM and 71 nM, respectively. Besides, the Activity in assay [1] is < 25%; in assay [2], < 2.5%; in [3] it was < 25%; in [4], 4%; in [5] it was < 25%; in assay [6], 4%. The Activity in assay [7] was 4%; in [8], < 25%; in assay [9] it was 4%; in [10], < 25%; in [12], 4%; in assay [13] it was < 25%. Further, the Activity in assay [14] was < 2.5%; in [15] it was < 25%.

With `Fc1cc2[nH]ncc2c2c3c(c(-c4c[nH]nc4C(F)(F)F)nc12)C1CCC3C1` (stereo not given), the IC50 at CDK2/Cyclin A1 turned out to be 49 nM; with MOLM-14 [16] it was 65 nM; with SEM cells it was 150 nM; with BaF3 [17], 35 nM; in [18] it was 28 nM; in [20], 72 nM. Besides, the IC50 was 5820 nM with BaF3 [23]; 7590 nM in the assay with K562; 6 nM in the assay on MOLM-13; 24 nM in the assay on MOLM-14 [25]; > 1000 nM in [27]; 49 nM at CDK2/Cyclin A2. Also, the IC50 in [28] came to 16 nM; with MV4-11 [11], 49 nM; with THP-1, 3150 nM; in assay [31], 31 nM; on CDK9/cyclin T1, 980 nM; in the assay with CCRF-CEM it was 8120 nM. For the same compound, the IC50 in the assay on U-937 came to 2240 nM; in the assay on MOLM-14 [33] it was 13 nM. For the same compound, the inhibition result in assay [19] is “inactive”. For the same compound, the outcome in the assay with MV4-11 [21], with MV4-11 [22], in the assay on MV4-11 [26], in the assay on MV4-11 [30] and in the assay with MV4-11 [32] was Active. The inhibition entry in [24] and in [29] was “Active” throughout.
